Measured values taken from publication PMC7908975, “Antioxidant and Anti-Inflammatory Activity of Citrus Flavanones Mix and Its Stability after In Vitro Simulated Digestion” (Antioxidants, 2021).

Tests used:
[1] = system: IL-8 release in Caco-2 cells; test: IL-8 release, IL-1β stimulated Caco-2 transwell model; format: cell-based, human; conditions: 24 h
Protocol: (§1) Experiments were carried out on transwell models (CacoReady™, Readycell, Barcelona, Spain) consisting of Caco-2 cells (8.5 × 10^4 cells/cm^2, passage number 41–58) seeded on polyester microporous filters in 24-well HTS plates (6.5 mm diameter, 0.33 cm^2 area and 0.4 µm of pore size) (Corning Incorporated, Corning, NY, USA). Completed Dulbecco’s Modified Eagle Medium (DMEM), prepared according to Denaro et al., was added on the apical (0.3 mL) and basolateral side (0.9 mL) of the Transwell® insert. After 21 days of culture, Caco-2 cells were completely differentiated and polarized, such that their phenotype resembled the morphological and functional features of mature enterocytes lining the small intestine.
(§2) Before starting with the anti-inflammatory experiments, the monolayer integrity was checked by measuring the trans-epithelial electrical resistance (TEER) with a Millicell® ERS-2 V/ohmmeter (Merck Millipore, Darmstadt, Germany) equipped with STX 100C electrode (World Precision Instruments, Sarasota, FL, USA). Caco-2-plated filters with epithelial resistance ≥800 Ω/cm^2 were used.
(§3) The anti-inflammatory activity of FM and digested FM (DFM) was evaluated on Caco-2 transwell model, according to Tesoriere et al., with some modifications. Briefly, 1.4 mM FM (see Section 2.3) was diluted 140 times in completed DMEM, obtaining a 10 µM FM (DMSO < 0.1%). […]
(§4) IL-6 and IL-8 release were measured by high-sensitivity human ELISA kits (Cymax IL-6 YIF-LF-EK0260 and Cymax IL-8YIF-LF-EK0262, Ab Frontiers, Adipogen Corporation, 9853 Pacific Heights Blvd., Suite L San Diego, CA, USA) according to the manufacturer’s recommendations, whereas NO release was estimated according to Tesoriere et al. by Griess reaction. […] Absorbance was recorded at 550 nm using a microplate reader (Multiskan GO, Thermo Scientific, Waltham, MA, USA). Results were expressed as µM NO extrapolating the results by a reference standard curve of sodium nitrite (1.0–15 µM).

[2] = system: NO release in Caco-2 cells; test: NO release (Griess reaction), IL-1β stimulated Caco-2 transwell model; format: cell-based, human; conditions: 24 h
Protocol: as §1, §2, §3, §4

[3] = system: IL-6 release in Caco-2 cells; test: IL-6 release, IL-1β stimulated Caco-2 transwell model; format: cell-based, human; conditions: 24 h
Protocol: as §1, §2, §3, §4

[4] = In vitro simulated human gastric and duodenal digestion with LC-DAD-ESI-MS/MS quantification; format: in vitro ADME; conditions: with respect to starting FM 10 µM; for DFM (µM): flavanone in duodenal digested flavanones mix: after gastric 2 h plus duodenal 4 h digestion, 37 °C; for GFM (µM): flavanone in gastric digested flavanones mix: after gastric digestion 2 h, pH 2.5, 37 °C
Source text: Based on the results of the preliminary antioxidant and anti-inflammatory screening (see Section 2.2), the most powerful flavanones (neohesperidin, hesperidin, neoeriocitrin, eriocitrin, and hesperetin) were selected in order to prepare a flavanones mix (FM), which was, at first instance, investigated by the same in vitro colorimetric assays (see Section 2.2) in order to evaluate its potency with respect to the single flavanones and to elucidate potential synergistic mechanisms. The following final concentration range of FM were used: FRAP (2.50–20 µM), ORAC (0.08–0.60 µM), TEAC (0.31–2.50 µM), DPPH (1.25–10 µM), ADA (5.0–40 µM), and APA (2.50–20 µM). After that, being the results of the preliminary antioxidant and anti-inflammatory screening of FM very promising, an appropriate concentration was chosen to proceed with the subsequent analyses. In particular, the FM was prepared on the assumption that digested sample, which would then be applied to the Caco-2 cells for the anti-inflammatory experiments, had to contain an equimolar concentration of the five most powerful flavanones (neohesperidin, hesperidin, neoeriocitrin, eriocitrin, and hesperetin) equal to 10 µM, which represents the mean efficacy concentration taking into account the IC50 values obtained in the preliminary antioxidant and anti-inflammatory screening of the FM. At this purpose, stock solutions (14 mM) of flavanones in DMSO were mixed and diluted 10-fold with Milli-Q water to obtain the 1.4 mM FM, which was used to carried out the in vitro simulated human digestion. In vitro gastric and duodenal digestion of FM was carried out according to Trombetta et al. with some modifications. FM solution (1.5 mL) (see Section 2.3), has been dissolved in 7.5 mL of simulated gastric solution containing 0.127 mM egg-phosphatidylcholine and adjusting the pH to 2.5, by 1 M HCl. Gastric pepsin and lipase (9000 U/mL and 60 U/mL, respectively) were added to the mixture starting the gastric digestion phase, which was protracted for 2 h at 37 °C, incubating under continuous stirring (170 rpm) by an Innova 4000 Benchtop Incubator Shaker (New Brunswick Scientific, Edison, NJ, USA). The gastric phase was stopped by the addition of 1M NaOH in order to reach a pH of 7.5, and 6 mL of the previous solution passed to the duodenal digestion phase. Duodenal solution was prepared by adding 2.10 mL of simulated bile solution (6.5 mM phosphatidylcholine, 4 mM cholesterol, 12.5 mM sodium taurocholate, and 12.5 mM sodium glycodeoxycholate) to 5.9 mL of simulated pancreatic juice containing pancreatic lipase (590 U/mL), colipase (3.2 µg/mL), trypsin (11 U/mL), α-chymotrypsin (24 U/mL), and α-amylase (300 U/mL). The duodenal mixture was incubated for 4 h under continuous stirring at 37 °C as described above. At the end, both gastric and duodenal digesta were immediately stored at −80 °C until the subsequent analyses. For quali-quantitative determination of flavanones, gastric and duodenal digesta were extracted with methanol (1:2, v/v) by mixing for 3 min. After that, samples were centrifuged at 12,000× g for 10 min, filtered by a 0.22 µm nylon syringe filter and injected into a liquid chromatograph equipped with a diode-array detector and mass spectrophotometer (LC-DAD-MS system, Agilent technologies, Santa Clara, CA, USA). The chromatographic separation was obtained using a reverse phase column Luna Omega PS C18 (150 × 2.1 mm, 5 µm; Phenomenex, Torrance, CA, USA) by using solvent A (formic acid 0.1% v/v) and solvent B (acetonitrile) as mobile phase according to the following elution gradient: 0 min, 0% B; 3–9 min, 3% B; 9–24 min, 12% B; 24–30 min, 20% B; 30–33 min, 33–43 30% B; 43–66 min 50% di B; 66–81 min 60% di B; 81–86 min 0% di B; 86–90 min 0% di B. […] UV–Vis spectra of flavanones were recorded (190–400 nm) and chromatograms were acquired at 292 nm, maximum flavanones absorption wavelength. […]

[5] = Trolox Equivalent Antioxidant Capacity (TEAC) assay
Protocol: TEAC assay was carried out according to Bazzicalupo et al.. […] Fifty microliters of each flavanone (2.0–64 µM) or trolox as reference compound (2.50–20 µM) were added to 1 mL of the TEAC reagent and incubated at RT in the dark for 6 min. The absorbance was recorded at 734 nm. Based on the results of the preliminary antioxidant and anti-inflammatory screening (see Section 2.2), the most powerful flavanones (neohesperidin, hesperidin, neoeriocitrin, eriocitrin, and hesperetin) were selected in order to prepare a flavanones mix (FM), which was, at first instance, investigated by the same in vitro colorimetric assays (see Section 2.2) in order to evaluate its potency with respect to the single flavanones and to elucidate potential synergistic mechanisms. The following final concentration range of FM were used: FRAP (2.50–20 µM), ORAC (0.08–0.60 µM), TEAC (0.31–2.50 µM), DPPH (1.25–10 µM), ADA (5.0–40 µM), and APA (2.50–20 µM). After that, being the results of the preliminary antioxidant and anti-inflammatory screening of FM very promising, an appropriate concentration was chosen to proceed with the subsequent analyses. […]

[6] = parameters: method as in PMID 19728713; conditions: as compounds of a bitter orange extract; cited from earlier work
[7] = 10 µM co-treatment with IL-1β 25 ng/mL

## IL-1β: well-known pro-inflammatory agent used at 25 ng/mL to trigger inflammation (CTR+)
[1]; 25 ng/mL
  increase in IL-8 vs CTR−: ~ 27 folds
[2]; 25 ng/mL
  increase in NO release vs CTR−: ~ 2.5 folds
[3]; 25 ng/mL
  increase in IL-6 vs CTR−: ~ 7 folds

## COc1ccc([C@@H]2CC(=O)c3c(O)cc(O[C@@H]4O[C@H](CO[C@@H]5O[C@@H](C)[C@H](O)[C@@H](O)[C@H]5O)[C@@H](O)[C@H](O)[C@H]4O)cc3O2)cc1O [Hesperidin, hesperetin-7-O-rutinoside]
[4]
  DFM (µM): flavanone in duodenal digested flavanones mix: 9.86 ± 0.13 µM
  GFM (µM): flavanone in gastric digested flavanones mix: 9.95 ± 0.04 µM
[5]
  IC50 in comparison with reference standard trolox, TEAC: a behavior comparable with the reference standard
[6]
  stability after simulated in vitro digestion: stable after simulated in vitro digestion

## C[C@@H]1O[C@@H](OC[C@H]2O[C@@H](Oc3cc(O)c4c(c3)O[C@H](c3ccc(O)c(O)c3)CC4=O)[C@H](O)[C@@H](O)[C@@H]2O)[C@H](O)[C@H](O)[C@H]1O [Eriocitrin, eriodictyol-7-O-rutinoside]
[4]
  DFM (µM): flavanone in duodenal digested flavanones mix: 8.80 ± 0.03 µM
  GFM (µM): flavanone in gastric digested flavanones mix: 9.05 ± 0.12 µM

## C[C@@H]1C[C@H]2[C@@H]3CCC4=CC(=O)C=C[C@]4(C)[C@@]3(F)[C@@H](O)C[C@]2(C)[C@@]1(O)C(=O)CO [Dex, dexamethasone]
[1]; 10 µM alone, without IL-1β
  pro-inflammatory activity, IL-8 release vs CTR−: did not show any pro-inflammatory activity
[1]; [7]
  inhibition of IL-8 release: ~66%
[2]; 10 µM alone, without IL-1β
  pro-inflammatory activity, NO release vs CTR−: did not show any pro-inflammatory activity
[2]; [7]
  inhibition of NO release: ~16%
[3]; 10 µM alone, without IL-1β
  pro-inflammatory activity, IL-6 release vs CTR−: did not show any pro-inflammatory activity
[3]; [7]
  IL-6 release with respect to positive control (CTR+): statistically significant decrease (p < 0.001)
